Results taken from US7682635B2, “Aqueous dispersions of nanometric or micrometric particles for encapsulating chemical compounds” (Centre National de la Recherche Scientifique (C.N.R.S.), priority 2002, dated 2010).

Experiment: Encapsulation of benzophenone in particles (ultracentrifugation, spectrophotometry of supernatant at 261 nm)
Assay type: physicochemical
Procedure: An aqueous solution of polymer P2 as defined in Example 1 (0.44 g/l) was produced, to which benzophenone was added with a molar ratio of benzophenone added: cyclodextrin equal to 1:1. This solution was left under agitation for 24 hours.
A composition of particles was prepared by mixture of 1 ml of the solution thus obtained with 1 ml of a solution of modified dextran DM3 as defined in Example 1 (0.44 g/l).
After mixture, the particles produced were ultracentrifuged (30 minutes at 40000 r.p.m. in a Beckman L7-55 centrifuge). The non-encapsulated benzophenone present in the supernatant was dosaged by spectrophotometry (absorption line at 261 nm).
The experiment was repeated using a molar ratio of benzophenone added: cyclodextrin equal to 1:3 for the solution of polymer P2.
The experiment was also repeated using modified dextran DM4 instead of DM3.
Finally, the experiment was also repeated using a molar ratio of benzophenone added cyclodextrin equal to 1:3 for the solution of polymer P2 and also replacing the modified dextran DM3 by DM4.

O=C(c1ccccc1)c1ccccc1 [benzophenone]
benzophenone initially introduced found in the supernatant (4 cases: P2 with DM3 or DM4, benzophenone:cyclodextrin 1:1 or 1:3, after ultracentrifugation): less than 70% | benzophenone content of particles (molar ratio benzophenone:cyclodextrin 1:1 in the initial solution of P2): 1 % by mass | benzophenone content of particles (molar ratio benzophenone:cyclodextrin 1:3): 3 % by mass
